How the values were obtained:
[1] = test system: obese model mice fed with a high-fat diet; experiment: Effect of astaxanthin monoester on obese model mice fed with a high-fat diet; type: in vivo, male C57BL/6J strain mice
Description: Astaxanthin was administered to obese model mice fed with a high-fat diet, and the change in body weight, the amount of subcutaneous fat (in the inguinal region and the back), the amount of visceral fat (around the reproductive organs and around the kidney), and the liver weight were examined in the following manner.
Four week old male C57BL/6J strain mice (SPF) purchased from CHARLES RIVER LABORATORIES JAPAN, INC. were used. The mice were preliminarily fed for 8 days and used for the test after they reached the age of 5 weeks. The mice were divided into three groups of 8 each, that is, a normal diet group, a high-fat diet group, and a high-fat diet+astaxanthin (AX) group, so that the average body weight was equal among the groups.
During the preliminary feeding period, the mice were given an ordinary powder diet (MF, Oriental Yeast Co., Ltd.), and during the test period of 16 weeks, the mice were given the ordinary powder diet or a high-fat diet having the composition shown in Table 1 below. As to drinking water, the mice were allowed to drink freely sterile distilled water from a water supply bottle.
The astaxanthin monoester prepared in Preparation Example 1 was dissolved in an olive oil (Wako Pure Chemical Industries, Ltd.) to prepare a solution containing astaxanthin monoester at a concentration of 60 mg/mL. This solution was administered to the high-fat diet+AX group and the olive oil to the other two groups in a volume of 0.05 mL/10 g body weight every day for 16 weeks from the start of the test (at the age of 5 weeks) to the age of 21 weeks, using a probe for oral administration in the mice.
During the test period, the body weight was measured once a week using a scale. At the end of the test, the body weight was measured, and thereafter, the mice were fasted overnight and sacrificed by collecting blood from the heart. Then, the liver, the adipose tissue in the inguinal region, the adipose tissue around the reproductive organs, the adipose tissue around the kidney, and the adipose tissue in the back were collected and the weights thereof were measured.
The different types of data obtained were expressed as average values±standard errors for each group. In order to test for statistically significant differences between the high-fat diet group and the high-fat diet+AX group or the normal diet group, a multiple comparison test (ANOVA) was performed using an analysis software (Stat View, Abacus Inc., USA), and a comparison between the groups was performed using Fisher's PLSD multiple comparison test. Differences were considered statistically significant when p<0.05.

[2] = test system: Human umbilical vein endothelial cells (HUVECs); experiment: Measurement of 50% lethal concentration for HUVEC (alamarBlue); type: cell-based
Description: Human umbilical vein endothelial cells (HUVECs) (ATCC CRL-1730) were obtained from American Type Culture Collection and precultivated in an Endothelial Cell Growth Medium (CELL APPLICATIONS, USA) containing 10% bovine fetal serum supplemented with 1% Antibiotic-Antimycotic (GIBCO BRL, USA) under a 5% CO2 atmosphere at 37° C.
A Matrigel matrix (BD Biosciences, USA) was melted and kept at 4° C. on ice, and then, 50 μL of the matrix were transferred to each well of a 96-well tissue culture plate. The plate was incubated at 37° C. for at least one hour to solidify the matrix solution.
On the other hand, the astaxanthin monoester obtained in Preparation Example 1 was dissolved in dimethylsulfoxide (DMSO), and then diluted with distilled water to prepare stock test solutions in which the astaxanthin monoester was contained in 40 (v/v) % DMSO at 25000, 2500, 250, 25, and 2.5 μM, respectively. […]
After the incubation, 20 μL of a 90% alamarBlue reagent were added to individual wells, and incubated for an additional 6 hours. Then, the fluorescence intensity of each well was measured at an excitation wavelength of 530 nm and an emission wavelength of 590 nm using a Spectrafluor Plus plate reader to count the number of living cells. […] The 50% lethal concentration was calculated as the concentration at which the number of living cells was 50% of the number of cells at the start of the experiment.

[3] = high-fat diet+AX vs high-fat diet group, oral daily for 16 weeks, end of test, FIG. 2
[4] = high-fat diet+AX vs high-fat diet group, oral daily for 16 weeks, end of test, FIG. 3

astaxanthin monoester was tested, and the “increase in body weight” value ([1]; high-fat diet+AX group vs high-fat diet group, oral, 60 mg/mL in olive oil, 0.05 mL/10 g body weight every day for 16 weeks, FIG. 1) was “tended to be distinctly suppressed”, the “amount of fat accumulation in subcutaneous fat (weight)” value [1, 3] was “significantly suppressed” and the “amount of fat accumulation in visceral fat (weight)” value [1, 3] was “significantly suppressed”. The “proportion of the liver weight to body weight” value [1, 4] was “approached that in the case of the normal diet”, the “proportions of all of the adipose tissues to body weight (increase)” value [1, 4] was “significantly suppressed” and the LC50 ([2]; 72 hours incubation, 250 μM = maximum concentration dissolved in DMSO) was no less than 250 µM. For the same substance, the toxicity ([2]; conclusion from the LC50 for HUVECs) was “low”.

Source: patent publication US20070129436A1, “Agent for Suppressing Body Fat Accumulation” (YAMAHA HATSUDOKI KABUSHIKI KAISHA, priority 2005, published 2007)
